# Laboratory results taken from article PMC10530652 (BME Frontiers, 2021).
# Legend:
# [1] = system: Salmonella typhimurium strain TA98; assay: Reduced test article AMES test, TA98; format: cell-based; settings: up to 250 μg/well, in the absence and presence of rat liver S-9
# Experimental: These conditions included treatments at concentrations up to 250 μg/well (a 20-fold pro rata reduction from the standard regulatory Ames assay maximum concentration), in the absence and in the presence of a rat liver metabolic activation system (S-9).
# MMP-9 = target: T1, MMP-9 (Homo sapiens, UniProt P14780); assay: In vitro enzymatic validation of FIB One with recombinant MMP-9 (plate reader); format: biochemical; settings: MMP 30 nM, n=3 in duplicate
# T1 construct: recombinant MMPs (Enzo Life Sciences) (active domains of MMP-1, MMP-2, MMP-3, MMP-7, MMP-8, MMP-9, MMP-10, MMP-11, MMP-12, and MMP-13); purchased Enzo Life Sciences
# T1 sequence (P14780 107-444 limits assumed): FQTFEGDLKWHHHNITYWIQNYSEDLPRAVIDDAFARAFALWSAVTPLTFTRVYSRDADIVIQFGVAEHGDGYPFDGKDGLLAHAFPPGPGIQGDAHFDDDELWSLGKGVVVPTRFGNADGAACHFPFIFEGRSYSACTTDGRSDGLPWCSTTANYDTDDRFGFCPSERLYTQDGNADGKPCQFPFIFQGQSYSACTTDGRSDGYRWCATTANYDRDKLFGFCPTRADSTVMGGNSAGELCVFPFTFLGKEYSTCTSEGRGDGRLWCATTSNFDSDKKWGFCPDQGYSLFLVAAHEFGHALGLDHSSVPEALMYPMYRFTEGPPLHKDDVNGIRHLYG
# Experimental: To determine the enzymatic specificity of FIB One, the probe was incubated at a concentration of 1 μM (unless otherwise stated) with the recombinant MMPs (Enzo Life Sciences) (active domains of MMP-1, MMP-2, MMP-3, MMP-7, MMP-8, MMP-9, MMP-10, MMP-11, MMP-12, and MMP-13, all at 30 nM), thrombin (Sigma Aldrich) (5 U/mL), factor Xa (Sigma Aldrich) (500 nM), plasmin (Sigma Aldrich) (30 nM), and human neutrophil elastase (30 nM). Where appropriate, enzymes were incubated with specific inhibitors for 30 min at 37°C prior to addition of FIB One. […] Enzyme free reactions served as a control. Enzymatic reactions were performed in MMP buffer (10 mM CaCl2, 6.1 g Tris-HCl, 8.6 g NaCl per litre, pH 7.5) in a final volume of 20 μL. Reactions were performed in duplicate in 384-well plates (Life Technologies) with optically clear plate seals (Thermo Scientific) and repeated thrice (independently). Fluorescence signal was measured for up to 60 min, ex/em 485/528 nm using microplate reader (BioTek Synergy H1 multimode reader). Data were normalised to buffer alone and are presented as fold-change in signal (relative fluorescent units, RFU) compared to enzyme-free controls. Data were plotted using Prism 7 (GraphPad Software Inc., La Jolla, CA, USA).
# patients = assay: Laboratory results in patients after FIB One delivery; format: in vivo, human
# Source text: Table S1: Laboratory results. […] Statistical analysis using paired t-test. (Hb= haemoglobin; WCC= white cell count; ALT- alanine transaminase; CRP= C Reactive Protein).
# Crl:WI(Han) rats = assay: Single intratracheal administration toxicity study of AZD1236; format: in vivo, rat; settings: 35 µg/animal (70 µg/mL)
# Experimental: Assessment of toxicity of AZD1236 was based on clinical signs, body weight, food consumption, clinical and anatomic pathology evaluations. Complete necropsies were performed on all animals with a recording of macroscopic abnormalities for all tissues. Organ weights and microscopic examinations were conducted as indicated.
# [2] = Stability study of AZD1236 aqueous formulation (HPLC); format: physicochemical; settings: for Conc. / pH: aqueous formulation; for Conc. / Total imp. RRT(%): HPLC; for ∆%: relative to starting concentration of 70µg/5mL
# Experimental: Summary table of stability as assessed by HPLC over 24 months stored under GMP conditions at RT. Data shown in blue represents inverted position vials. ∆% is relative to starting concentration of 70µg/5mL at time zero. Acceptance criteria: Retention time (RT) for AZD1236 is 3.97 min (Range 3.40-4.50 min). Total impurities – report as RRT (%) for each impurity. Biological functionality LOD = >21µg/5mL. pH 7.5 (7.0-8.0).
# [3] = room temperature, 12m, 1st of 2 vials
# [4] = room temperature, 12m, 2nd of 2 vials
# [5] = room temperature, 18m, 1st of 2 vials
# [6] = room temperature, 18m, 2nd of 2 vials
# [7] = room temperature, 24m, 1st of 2 vials
# [8] = room temperature, 24m, 2nd of 2 vials
# [9] = room temperature, 1m, 1st of 2 vials
# [10] = room temperature, 1m, 2nd of 2 vials
# [11] = room temperature, 3m, 1st of 2 vials
# [12] = room temperature, 3m, 2nd of 2 vials
# [13] = room temperature, 6m, 1st of 2 vials
# [14] = room temperature, 6m, 2nd of 2 vials
# [15] = room temperature, 10.5m, 1st of 2 vials
# [16] = room temperature, 10.5m, 2nd of 2 vials
# [17] = room temperature, 24h, 1st of 2 vials
# [18] = room temperature, 24h, 2nd of 2 vials
# [19] = room temperature, 15d, 1st of 2 vials
# [20] = room temperature, 15d, 2nd of 2 vials
substance,measurement,setting,value
(Pro-Phe-Gly-Nle-Lys-βAla)3 [FIB One],mutation induction,[1],did not induce mutation
same,fluorescent amplification of FIB One on exposure to enzyme,"MMP-9; FIB One 1 μM, MMP buffer pH 7.5, ex/em 485/528 nm, fold-change vs enzyme-free control",rapid and specific fluorescent amplification
same,signal amplification compared with analogous monomeric linear structure (FRET-monomer),"MMP-9; probes 1 µM, 10 min incubation",improved signal amplification
same,Potassium,"patients; blood 4-6 hours post FIB One delivery, mean (sd), baseline 4.3 (0.4)",4.2 (0.4) mmol/L
same,Urea,"patients; blood 4-6 hours post FIB One delivery, mean (sd), baseline 4.6 (1.3)",4.7 (1.1) mmol/L
same,CRP,"patients; blood 4-6 hours post FIB One delivery, mean (sd), baseline 5.4 (8.1)",5.2 (8.1) mg/L
same,WCC,"patients; blood 4-6 hours post FIB One delivery, mean (sd), baseline 7.6 (1.1), p <0.0001",10.9 (2.9) x10^9/L
same,Bilirubin,"patients; blood 4-6 hours post FIB One delivery, mean (sd), baseline 12.5 (5.3)",12.4 (4.6) umol/L
same,ALT,"patients; blood 4-6 hours post FIB One delivery, mean (sd), baseline 25.2 (18.2)",23.8 (15.2) IU/L
same,Creatinine,"patients; blood 4-6 hours post FIB One delivery, mean (sd), baseline 77.5 (11.5)",77.3 (12.1) umol/L
same,Sodium,"patients; blood 4-6 hours post FIB One delivery, mean (sd), baseline 138.9 (2.7), p 0.01",137.7 (3.2) mmol/L
same,Hb,"patients; blood 4-6 hours post FIB One delivery, mean (sd), baseline 148.6 (11.3), p 0.0002",143 g/L
same,Platelets,"patients; blood 4-6 hours post FIB One delivery, mean (sd), baseline 221.5 (53.2)",221.2 (52.6) x10^9/L
same,clinically significant alterations of laboratory results,patients; pre procedure vs 4-6 hours post FIB One delivery,no clinically significant alterations
AZD1236,"deaths, clinical signs, body weight, food consumption, clinical or anatomic pathology",Crl:WI(Han) rats,"no deaths, no adverse clinical signs and no effects of treatment"
same,"tolerability, acute or delayed toxicity",Crl:WI(Han) rats,well tolerated with no evidence of acute or delayed toxicity
same,biological functionality in aqueous formulation,"[2]; 24 months, GMP conditions at RT, biological functionality LOD = >21µg/5mL",remains biologically functional
same,degradation in aqueous formulation of the drug product (HPLC traces),"[2]; after 24 months, stored at ambient temperature",no degradation
same,Conc.,"[2]; room temperature, 1m, 1st of 2 vials (one inverted)",77.0 µg per 5mL
same,Conc.,"[2]; room temperature, 1m, 2nd of 2 vials (one inverted)",76.8 µg per 5mL
same,Conc.,"[2]; room temperature, 3m, 1st of 2 vials (one inverted)",69.4 µg per 5mL
same,Conc.,"[2]; room temperature, 3m, 2nd of 2 vials (one inverted)",69.4 µg per 5mL
same,Conc.,"[2]; room temperature, 6m, 1st of 2 vials (one inverted)",70.8 µg per 5mL
same,Conc.,"[2]; room temperature, 6m, 2nd of 2 vials (one inverted)",70.6 µg per 5mL
same,Conc.,"[2]; room temperature, 10.5m, 1st of 2 vials (one inverted)",71.1 µg per 5mL
same,Conc.,"[2]; room temperature, 10.5m, 2nd of 2 vials (one inverted)",70.7 µg per 5mL
same,pH,[2]; [3],7.5
same,pH,[2]; [4],7.5
same,Conc.,"[2]; room temperature, 12m, 1st of 2 vials (one inverted)",70.0 µg per 5mL
same,Conc.,"[2]; room temperature, 12m, 2nd of 2 vials (one inverted)",69.2 µg per 5mL
same,pH,[2]; [5],7.5
same,pH,[2]; [6],7.5
same,Conc.,"[2]; room temperature, 18m, 1st of 2 vials (one inverted)",70.4 µg per 5mL
same,Conc.,"[2]; room temperature, 18m, 2nd of 2 vials (one inverted)",70.2 µg per 5mL
same,pH,[2]; [7],7.5
same,pH,[2]; [8],7.5
same,Conc.,"[2]; room temperature, 24m, 1st of 2 vials (one inverted)",72.96 µg per 5mL
same,Conc.,"[2]; room temperature, 24m, 2nd of 2 vials (one inverted)",72.52 µg per 5mL
same,Conc.,"[2]; room temperature, 24h, 1st of 2 vials (one inverted)",74.3 µg per 5mL
same,Conc.,"[2]; room temperature, 24h, 2nd of 2 vials (one inverted)",74.5 µg per 5mL
same,Conc.,"[2]; room temperature, 15d, 1st of 2 vials (one inverted)",70.2 µg per 5mL
same,Conc.,"[2]; room temperature, 15d, 2nd of 2 vials (one inverted)",70.3 µg per 5mL
same,pH,[2]; timepoint 0,7.5
same,∆%,[2]; [9],+10.0%
same,∆%,[2]; [10],+9.70%
same,∆%,[2]; [11],-0.90%
same,∆%,[2]; [12],-0.90%
same,∆%,[2]; [13],+1.00%
same,∆%,[2]; [14],+0.80%
same,∆%,[2]; [15],+1.50%
same,∆%,[2]; [16],+1.00%
same,∆%,[2]; [3],+0.00%
same,∆%,[2]; [4],-1.15%
same,∆%,[2]; [5],+0.6%
same,∆%,[2]; [6],+0.3%
same,∆%,[2]; [7],+4.2%
same,∆%,[2]; [8],+3.6%
same,∆%,[2]; [17],+6.0%
same,∆%,[2]; [18],+6.0%
same,∆%,[2]; [19],+0.14%
same,∆%,[2]; [20],+0.21%
same,Total imp. RRT(%),[2]; [9],ND/NQ ND/NQ
same,Total imp. RRT(%),[2]; [10],ND/NQ ND/NQ
same,Total imp. RRT(%),[2]; [11],ND/NQ ND/NQ
same,Total imp. RRT(%),[2]; [12],ND/NQ ND/NQ
same,Total imp. RRT(%),[2]; [13],ND/NQ ND/NQ
same,Total imp. RRT(%),[2]; [14],ND/NQ ND/NQ
same,Total imp. RRT(%),[2]; [15],ND/NQ ND/NQ
same,Total imp. RRT(%),[2]; [16],ND/NQ ND/NQ
same,Total imp. RRT(%),[2]; [3],ND/NQ ND/NQ
same,Total imp. RRT(%),[2]; [4],ND/NQ ND/NQ
same,Total imp. RRT(%),[2]; [5],ND/NQ ND/NQ
same,Total imp. RRT(%),[2]; [6],ND/NQ ND/NQ
same,Total imp. RRT(%),[2]; [7],ND/NQ ND/NQ
same,Total imp. RRT(%),[2]; [8],ND/NQ ND/NQ
same,Total imp. RRT(%),[2]; [17],ND/NQ ND/NQ
same,Total imp. RRT(%),[2]; [18],ND/NQ ND/NQ
same,Total imp. RRT(%),[2]; [19],ND/NQ ND/NQ
same,Total imp. RRT(%),[2]; [20],ND/NQ ND/NQ
